Measurements as given in patent US20130137975A1, “PET IMAGING” (OSI PHARMACEUTICALS, LLC, priority 2010, published 2013).
Like-named read-outs stand apart in the source and are kept apart here.

Tests used:
H292 cells [1] = assay: 3H-2-deoxyglucose uptake assay in H292 cells; type: cell-based; conditions: for 3H-2-deoxyglucose uptake (FIG. 16): 30 minute treatment, selected concentrations of each agent
Description: (§1) H292 and H441 cells were seeded in 12 well microtiter plates (Becton Dickinson) at 9.0×10^5 cells per well in normal glucose (11.1 mM) media for 6 hours (n=3 wells/group). The media was then changed to 5.5 mM glucose media and the cells were allowed to equilibrate overnight. On the day of the assay the media was again removed and replaced with 0.0 mM glucose (glucose starvation) for three hours. […] After a 5, 30, or 45-minute exposure the media was removed, the cells placed on ice and washed with ice-cold PBS buffer solution. The PBS was then removed and the cells were lysed in RIPA buffer for 15 minutes on ice. The lysates were harvested and counted in a Packard Liquid Scintillation counter.

H441 xenografts = assay: 18F-FDG-PET imaging of H441 xenografts; type: in vivo, athymic nu/nu mice; conditions: 60 mg/kg oral; any time point evaluated (2, 4, 24 hours)
Description: (§2) Palpable tumors were evident approximately 10 days post implant. […] Mice were fasted from food 12 hours prior to imaging with ^18F-FDG (VUIIS Cyclotron). […] After dosing, the mice were kept isolated in a chamber at a constant temperature of 30° C. using a warm air circulating device (Harvard Apparatus). […] After 30 minutes, PET imaging was performed using a Concord small animal PET imager. Images were then collected and reconstructed. Analyses of separate regions of interest (ROI) drawn over the area of the tumors (and muscle) were conducted and glucose uptake was calculated as % injected dose per gram of tissue against known phantom standards.

phospho-IGF1-R = target: T1, phospho-IGF1-R (Homo sapiens, UniProt P08069); assay: target inhibition in H292 tumor lysates in vivo (RTK array analysis); set-up: species or system mice; conditions: for inhibition at 60 mg/kg: NCI-H292, read-out: target inhibition of phospho-IGF1-R, single dose 60 mg/kg
T1 construct: endogenous in cells; host or cells: NCI-H292 cells grown as subcutaneous xenograft tumours in athymic nu/nu mice
T1 sequence (P08069 31-1367): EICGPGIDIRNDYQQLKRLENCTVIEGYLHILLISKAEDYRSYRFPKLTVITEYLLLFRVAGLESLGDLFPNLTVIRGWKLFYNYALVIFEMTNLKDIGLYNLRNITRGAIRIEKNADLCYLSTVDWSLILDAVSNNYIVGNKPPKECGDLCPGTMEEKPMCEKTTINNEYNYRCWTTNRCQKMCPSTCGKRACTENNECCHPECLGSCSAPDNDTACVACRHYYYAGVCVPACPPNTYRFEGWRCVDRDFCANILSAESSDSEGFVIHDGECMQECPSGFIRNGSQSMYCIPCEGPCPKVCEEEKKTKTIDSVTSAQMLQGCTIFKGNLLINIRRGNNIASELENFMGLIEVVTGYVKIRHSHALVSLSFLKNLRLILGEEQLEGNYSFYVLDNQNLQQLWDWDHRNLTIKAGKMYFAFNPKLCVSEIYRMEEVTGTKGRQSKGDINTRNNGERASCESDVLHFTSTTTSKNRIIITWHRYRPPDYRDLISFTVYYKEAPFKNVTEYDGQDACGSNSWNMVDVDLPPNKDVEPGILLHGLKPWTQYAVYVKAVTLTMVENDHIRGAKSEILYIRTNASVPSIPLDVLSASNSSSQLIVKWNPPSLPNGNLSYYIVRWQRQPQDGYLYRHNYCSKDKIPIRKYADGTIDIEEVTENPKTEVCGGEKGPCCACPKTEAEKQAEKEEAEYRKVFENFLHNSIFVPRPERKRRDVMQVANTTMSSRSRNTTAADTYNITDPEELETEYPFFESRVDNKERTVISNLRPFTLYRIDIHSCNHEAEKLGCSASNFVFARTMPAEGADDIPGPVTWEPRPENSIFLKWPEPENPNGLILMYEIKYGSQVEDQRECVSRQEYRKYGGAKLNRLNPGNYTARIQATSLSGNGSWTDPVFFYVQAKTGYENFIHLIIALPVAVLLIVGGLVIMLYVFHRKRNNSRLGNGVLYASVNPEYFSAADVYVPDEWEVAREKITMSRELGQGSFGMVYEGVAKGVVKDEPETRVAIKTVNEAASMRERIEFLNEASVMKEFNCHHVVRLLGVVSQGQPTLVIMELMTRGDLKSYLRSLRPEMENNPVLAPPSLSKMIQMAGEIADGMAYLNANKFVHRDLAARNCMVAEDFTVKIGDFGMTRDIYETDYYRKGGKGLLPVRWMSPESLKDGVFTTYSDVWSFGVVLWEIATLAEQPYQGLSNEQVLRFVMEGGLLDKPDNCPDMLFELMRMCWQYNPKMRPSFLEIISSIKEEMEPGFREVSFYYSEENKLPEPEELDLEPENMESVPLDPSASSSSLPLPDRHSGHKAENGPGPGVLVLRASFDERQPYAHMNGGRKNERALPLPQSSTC
From the text: All animal studies were under the approval of the Institutional Animal Care and Use Committee in an American Association for Accreditation of Laboratory Animal Care-accredited vivarium and in accordance with the Institute of Laboratory Animal Research (Guide for Care and Use of Laboratory Animals, NIH, Bethesda, Md.). Mice were 8-week-old athymic nu/nu mice (Charles Rivers) and were housed in clean specific pathogen free rooms in groups of four mice per cage. The mice were allowed access to sterile rodent chow and water ad libitum except when undergoing FDG-PET imaging, as noted. The H292 and H441 cells were harvested from T225 flasks at 90% confluency and implanted in the right thigh subcutaneously at a concentration of 1.0×10^7 cells per 100 μL of PBS inoculum. […] When the tumors achieved a volume of approximately 300 mm^3, the animals were sorted, randomized, and placed on study.
Tumor lysates were prepared according to the manufacturer's protocol (Proteome Profiler, R&D Systems). Briefly, tumor lysates were solubilized in NP-40 lysis buffer and re-suspended for 30 minutes at 2° C. with rocking. This preparation was centrifuged at 14,000×g for 5 minutes and transferred to a clean tube. Protein concentration was then determined by BCA assay. The lysate was then incubated with the Human Phospho-RTK array at 1000 μg overnight at 2° C. with rocking. The arrays were then washed, and incubated with freshly prepared detection antibody for two hours. After washing, the arrays were exposed to film for 0.5-3.0 minutes. The developed arrays were then quantitfied using a Kodak scanner and image analysis software.

NCI-H441 cells = assay: 3H-2-deoxyglucose uptake assay in H441 cells; type: cell-based; conditions: 30 minutes after treatment; higher doses than in NCI H292 cells
Description: as §1

pAKT, pS6, pERK, AS160 = assay: Western blot of H292 in vitro cell lysates, downstream markers of altered glycolysis; type: cell-based
IGF-1R = IGF-1R (Homo sapiens, UniProt P08069); conditions: 1 μM OSI-906; panel of 116 kinases; cited from earlier work
Chain of IGF-1R (P08069 31-1367): as above

H292 cells [2] = assay: analysis for cell death by FACS; type: cell-based; conditions: 1.0-30 μM, compared to 0.05% DMSO controls
pIGF-1R = target: T2, pIGF-1R (Homo sapiens, UniProt P08069); assay: Western blot of NCI-H292 cells, target inhibition; type: cell-based
T2 construct: endogenous in cells; host or cells: NCI-H292
T2 sequence (P08069 31-1367): as above

H292 tumors = assay: 18F-FDG biodistribution study, H292 tumors; type: in vivo, athymic nu/nu mice; conditions: 60 mg/kg oral; between 2 and 8 hours post treatment; scintillation counting
Description: Palpable tumors were evident approximately 10 days post implant. […] Mice were fasted for 12-16 hours prior to dosing with the radiopharmaceutical. […] Mice were kept isolated and under a warming lamp at a temperature of approximately 30° C. One hour before the desired sacrifice time, the mice were dosed with 4-6 μCi of ^18F-FDG via the lateral tail vein. The mice were sacrificed 60 minutes later via CO2 asphyxiation, and selected tissues removed, rinsed, weighed and then placed into scintillation tubes. The samples were counted using a Cobra II Scintillation Counter and the % injected dose per gram of tissue calculated against prepared standards.

pERK, pAKT, pS6, AS160 = assay: Western blot of NCI-H292 tumor lysates in vivo, markers of altered glycolysis; set-up: species or system mice; conditions: 60 mg/kg
Description: (§3) Palpable tumors were evident approximately 10 days post implant. When the tumors achieved a volume of approximately 300 mm^3, the animals were sorted, randomized, and placed on study.
Tumors were homogenized in 1 mL of TGH buffer per 200 mg of tissue on ice at 15,000 rpm until total homogenization was achieved. For analysis of IGF-1R and IR phosphorylation status, after pre-clearing by centrifugation (14,000 rpm/5 minutes), the lysate was incubated overnight at 4° C. with an antiphosphotyrosine antibody, and 30 μL Protein A-sephorase was then added and further incubated for an additional two hours. […] Antibodies were obtained from Santa Cruz Biotechnology.

H292 xenografts = assay: 18F-FDG-PET imaging of H292 xenografts; type: in vivo, athymic nu/nu mice; conditions: 60 mg/kg oral; 2 and 4 hours post dosing
Description: as §2

NCI H292 xenografts = assay: tumor growth of NCI H292 xenografts under daily treatment; type: in vivo, mice; conditions: daily treatment with 60 mg/kg
From the text: as §3

NCI-H441 xenografts = assay: tumor growth of NCI-H441 xenografts under daily treatment; type: in vivo, mice; conditions: daily treatment with 60 mg/kg
From the text: as §3

## C#Cc1cccc(Nc2ncnc3cc(OCCOC)c(OCCOC)cc23)c1 [erlotinib, reference compound]
H292 cells [1]
  3H-2-deoxyglucose uptake (FIG. 16): rapid inhibition

## C=C1[C@@H](C)[C@H]2[C@H](Cc3ccccc3)NC(=O)[C@]23OC(=O)/C=C/[C@H](O)CCC[C@@H](C)C/C=C/[C@H]3[C@@H]1O [Cytochalasin B, reference compound]
H292 cells [1]; 2.5-10 μM, 30 minutes post treatment (FIG. 3)
  3H-2-deoxyglucose uptake, positive control: significantly inhibits uptake

## CC1(O)CC(c2nc(-c3ccc4ccc(-c5ccccc5)nc4c3)c3c(N)nccn23)C1 (stereo not drawn) [OSI-906, cis-3-[8-amino-1-(2-phenyl-quinolin-7-yl)-imidazo[1,5-a]pyrazin-3-yl]-1-methylcyclobutanol]
H441 xenografts
  18F-FDG uptake (PET SUV): do not demonstrate a significant change
phospho-IGF1-R; 2 and 4 hours post treatment
  inhibition at 60 mg/kg: ~85%
phospho-IGF1-R; 24 hours
  inhibition at 60 mg/kg: 70%
phospho-IGF1-R; single 60 mg/kg treatment, 2, 4 and 24 hours
  target inhibition of pIGF-1R, RTK array (FIGS. 17 and 18): strong target inhibition
NCI-H441 cells
  3H-2-deoxyglucose uptake (FIG. 13): dose dependent decrease
pAKT, pS6, pERK, AS160; 0.0 μM-30 μM, 30 minutes after drug treatment (FIG. 11)
  signal intensity of phospho-AKT, phospho-S6 and AS160 bands: dose dependent response with respect to decreased signal intensity
pAKT, pS6, pERK, AS160; 30 minutes of exposure (FIG. 12)
  downstream targets pERK, pAKT, pS6, AS160: inhibition of downstream targets
IGF-1R
  inhibition of IGF-1R: greater than 50%
H292 cells [2]
  cell death by FACS analysis: no significant cell death
pIGF-1R; 30 minutes of exposure, all doses (FIG. 12)
  pIGF-1R: target inhibition
pIGF-1R; 2 hours, all concentrations (10 nM, 100 nM, 500 nM)
  pIGF-1R, time course: reduction
pIGF-1R; through 24 hours, 10 nM, 100 nM, 500 nM
  pIGF-1R, time course: inhibition remains through 24 hours in all but the lowest, 10 nM concentration
H292 cells [1]
  3H-2-deoxyglucose uptake (FIG. 16): rapid inhibition
H292 cells [1]; as early as five minutes post treatment, increasing concentrations
  3H-2-deoxyglucose uptake, onset: significant decrease
H292 tumors
  decrease of 18F-FDG uptake in tumor samples compared to vehicle control animals: 20-50%
pERK, pAKT, pS6, AS160; 4 hours post treatment, compared to untreated control lysates
  phospho-AKT, phospho-S6, phospho-ERK and AS160 in tumor lysates: decreased signal intensity
pERK, pAKT, pS6, AS160; 24 hours post dose
  pERK, pAKT, pS6 in tumor lysates: return to baseline levels
H292 xenografts
  18F-FDG uptake (PET SUV): significant decrease
NCI H292 xenografts
  tumor growth compared to vehicle controls: significant tumor growth inhibition
NCI-H441 xenografts
  tumor growth compared to vehicle-treated cohort: do not exhibit a difference in tumor growth
